One data set has as its target benzodiazepine receptor. Kind of data set: Displacement of 3H-flumazenil in rat cortical tissue (receptor binding). The following applies: for Ki: 3H-Flumazenil binding in vitro, rat cortical membranes, mean ± SD of three determinations. The protocol:
Affinity of test substances for the benzodiazepine receptor was determined in vitro by displacement of ^3H-flumazenil in rat cortical tissue.
Background: Loss of bound radioactivity is the signal in a displacement assay; it reports binding, not function.

Bounds are passed on as bounds.

As for `CCOC(=O)n1c(=S)[nH]c2ccc(C)cc2c1=O` [Compound 3b, Ethyl 6-methyl-4-oxo-2-thioxo-1,4-dihydroquinazoline-3(2H)-carboxylate], the melting point (usually the temperature of the solid-liquid transition) stood at 164 °C. Moreover, at benzodiazepine receptor, the Ki (commonly the dissociation constant of the complex between target and ligand, obtained from inhibition or displacement) is > 30000 nM. The “affinity for the BZD receptor (in words)” value in the data set on benzodiazepine receptor (discussion of Table 1) is on record as “low affinity”.

Compound `Cc1ccc(-n2nc3c4cc(Br)ccc4[nH]c(=O)n3c2=O)cc1` [Compound 8a, 9-Bromo-2-(4-methylphenyl)-2,6-dihydro[1,2,4]triazolo[4,3-c]quinazoline-3,5-dione] returned a melting point of 369 °C. This compound also yielded a Ki on benzodiazepine receptor of 0.24 ± 0.07 nM.

`O=c1[nH]c2ccc(Br)cc2c2nn(-c3ccccc3)c(=O)n12` [Compound 8b, 9-Bromo-2-phenyl-2,6-dihydro[1,2,4]triazolo[4,3-c]quinazoline-3,5-dione] came in with a melting point of 405 °C. The compound also returned a Ki on benzodiazepine receptor of 0.47 ± 0.09 nM.

Take `O=c1[nH]c2ccc(Br)cc2c2nn(-c3ccc(Cl)cc3)c(=O)n12` [Compound 8c, 9-Bromo-2-(4-chlorophenyl)-2,6-dihydro[1,2,4]triazolo[4,3-c]quinazoline-3,5-dione]: the melting point was 387 °C (dec.). For the same compound, at benzodiazepine receptor, affinity was put at a Ki of 0.6 ± 0.26 nM.

As for `O=c1[nH]c2ccc(Br)cc2c2nn(-c3ccccc3F)c(=O)n12` [Compound 8d, 9-Bromo-2-(2-fluorophenyl)-2,6-dihydro[1,2,4]triazolo[4,3-c]quinazoline-3,5-dione], the melting point is 347 °C (dec.). At benzodiazepine receptor, this compound had a Ki of 0.2 ± 0.07 nM.

In the case of `Cc1ccc2[nH]c(=O)n3c(=O)n(-c4ccccc4)nc3c2c1` [Compound 8e, 9-Methyl-2-phenyl-2,6-dihydro[1,2,4]triazolo[4,3-c]quinazoline-3,5-dione], the melting point is 330 °C (dec.). Besides, affinity on benzodiazepine receptor was put at a Ki of 0.62 ± 0.13 nM.

`Cc1ccc(-n2nc3c4cc(C#Cc5ccccc5)ccc4[nH]c(=O)n3c2=O)cc1` [Compound 13a, 2-(4-Methylphenyl)-9-phenylethynyl-2,6-dihydro[1,2,4]triazolo[4,3-c]-quinazoline-3,5-dione]: the melting point is > 300 °C (dec.). The compound also came in with a Ki at benzodiazepine receptor of 40 nM.

Consider `Cc1ccc(-n2nc3c4cc(C#Cc5ccsc5)ccc4[nH]c(=O)n3c2=O)cc1` [Compound 13b, 2-(4-Methylphenyl)-9-(3-thienylethynyl)-2,6-dihydro[1,2,4]triazolo[4,3-c]-quinazoline-3,5-dione], for which the melting point was > 320 °C (dec.).

`Cc1ccc(-n2nc3c4cc(C#Cc5ccccn5)ccc4[nH]c(=O)n3c2=O)cc1` [Compound 13c, 2-(4-Methylphenyl)-9-(pyridin-2-ylethynyl)-2,6-dihydro[1,2,4]triazolo[4,3-c]-quinazoline-3,5-dione] came in with a melting point of 330 °C.

Take `Cc1ccc(-n2nc3c4cc(C#Cc5cccnc5)ccc4[nH]c(=O)n3c2=O)cc1` [Compound 13d, 2-(4-Methylphenyl)-9-(pyridin-3-ylethynyl)-2,6-dihydro[1,2,4]triazolo[4,3-c]-quinazoline-3,5-dione]: the melting point stood at 339 °C.

On to `Cc1ccc(-n2nc3c4cc(C#Cc5ccncc5)ccc4[nH]c(=O)n3c2=O)cc1` [Compound 13e, 2-(4-Methylphenyl)-9-(pyridin-4-ylethynyl)-2,6-dihydro[1,2,4]triazolo[4,3-c]-quinazoline-3,5-dione], for which the melting point came to 330 °C.

For the compound `Cc1ccc(-n2nc3c4cc(C#Cc5ccc(Oc6ccccc6)cc5)ccc4[nH]c(=O)n3c2=O)cc1` [Compound 13f, 2-(4-Methylphenyl)-9-[(4-phenoxyphenyl)ethynyl]-2,6-dihydro[1,2,4]triazolo[4,3-c]-quinazoline-3,5-dione], the melting point was 216 °C.

For `Cc1ccc(-n2nc3c4cc(C#Cc5ccc(-c6ccccc6)cc5)ccc4[nH]c(=O)n3c2=O)cc1` [Compound 13g, 9-(Biphen-4-ylethynyl)-2-(4-methylphenyl)-2,6-dihydro[1,2,4]triazolo[4,3-c]-quinazoline-3,5-dione], the melting point was > 350 °C (dec.).

Consider `Cc1ccc(-n2nc3c4cc(C#Cc5cccc(O)c5)ccc4[nH]c(=O)n3c2=O)cc1` [Compound 13i, 9-(3-Hydroxyphenyl)ethynyl-2-(4-methylphenyl)-2,6-dihydro[1,2,4]triazolo[4,3-c]-quinazoline-3,5-dione], for which the melting point is 300 °C (dec.).

As for `Cc1ccc(-n2nc3c4cc(CCc5ccccc5)ccc4[nH]c(=O)n3c2=O)cc1` [Compound 14a, 2-(4-Methylphenyl)-9-(2-phenylethyl)-2,6-dihydro[1,2,4]triazolo[4,3-c]-quinazoline-3,5-dione], the melting point came to 303 °C. In addition, at benzodiazepine receptor, the Ki was found to be 4 ± 1.2 nM. The “fold difference in potency among the ethylene linked compounds, thiophene over phenyl” value in the data set with benzodiazepine receptor (ratio of Ki values, printed as 14a over 14b) amounted to 4 fold.

On to `Cc1ccc(-n2nc3c4cc(CCc5ccsc5)ccc4[nH]c(=O)n3c2=O)cc1` [Compound 14b, 2-(4-Methylphenyl)-9-[2-(3-thienyl)ethyl]-2,6-dihydro[1,2,4]triazolo[4,3-c]-quinazoline-3,5-dione], for which the melting point is 281 °C. On benzodiazepine receptor, this compound displayed a Ki of 0.94 ± 0.27 nM.

`Cc1ccc(-n2nc3c4cc(CCc5ccccn5)ccc4[nH]c(=O)n3c2=O)cc1` [Compound 14c, 2-(4-Methylphenyl)-9-[2-(2-pyridyl)ethyl]-2,6-dihydro[1,2,4]triazolo[4,3-c]-quinazoline-3,5-dione]: the melting point is > 300 °C (dec.). Further, the affinity at benzodiazepine receptor corresponds to a Ki of 0.53 ± 0.11 nM.

On to `Cc1ccc(-n2nc3c4cc(CCc5cccnc5)ccc4[nH]c(=O)n3c2=O)cc1` [Compound 14d, 2-(4-Methylphenyl)-9-[2-(3-pyridyl)ethyl]-2,6-dihydro[1,2,4]triazolo[4,3-c]-quinazoline-3,5-dione], for which the melting point came out at 292 °C. This compound yielded a Ki on benzodiazepine receptor of 0.2 ± 0.04 nM.

In turn, `Cc1ccc(-n2nc3c4cc(CCc5ccncc5)ccc4[nH]c(=O)n3c2=O)cc1` [Compound 14e, 2-(4-Methylphenyl)-9-[2-(4-pyridyl)ethyl]-2,6-dihydro[1,2,4]triazolo[4,3-c]-quinazoline-3,5-dione] had a melting point of 294 °C. Also, the Ki on benzodiazepine receptor was 0.17 ± 0.03 nM.

Regarding `Cc1ccc(-n2nc3c4cc(CCc5ccc(Oc6ccccc6)cc5)ccc4[nH]c(=O)n3c2=O)cc1` [Compound 14f, 2-(4-Methylphenyl)-9-[2-(4-phenoxyphenyl)ethyl]-2,6-dihydro[1,2,4]triazolo[4,3-o]-quinazoline-3,5-dione], the melting point was determined as 213 °C. At benzodiazepine receptor, this compound yielded a Ki of 123 ± 12 nM.

As for `Cc1ccc(-n2nc3c4cc(CCc5ccc(-c6ccccc6)cc5)ccc4[nH]c(=O)n3c2=O)cc1` [Compound 14g], the melting point was determined as 345 °C. Moreover, the inhibition constant (Ki) at benzodiazepine receptor is 1570 ± 150 nM.

With `Cc1ccc(-n2nc3c4cc(CCc5cccc(O)c5)ccc4[nH]c(=O)n3c2=O)cc1` [Compound 14i, 9-[2-(3-hydroxyphenyl)ethyl]-2-(4-Methylphenyl)-2,6-dihydro[1,2,4]triazolo[4,3-c]-quinazoline-3,5-dione], the melting point was 300 °C (dec.). On benzodiazepine receptor, the Ki was found to be 6.2 nM.

On to `Cc1ccc(-n2nc3c4cc(Cc5ccccc5)ccc4[nH]c(=O)n3c2=O)cc1` [Compound 16a, 9-Benzyl-2-(4-methylphenyl)-2,6-dihydro[1,2,4]triazolo[4,3-c]quinazoline-3,5-dione], for which the melting point was 299 °C. On benzodiazepine receptor, the Ki was ~1 nM.

In turn, `Cc1ccc(-n2nc3c4cc(Cc5cccc(F)c5)ccc4[nH]c(=O)n3c2=O)cc1` [Compound 16b, 9-(3-Fluorobenzyl)-2-(4-methylphenyl)-2,6-dihydro[1,2,4]triazolo[4,3-c]quinazoline-3,5-dione] came in with a melting point of 324 °C. On benzodiazepine receptor, this compound came in with a Ki of 2.1 ± 0.3 nM.

As for `Cc1ccc(-n2nc3c4cc(Cc5ccsc5)ccc4[nH]c(=O)n3c2=O)cc1` [Compound 16c, 2-(4-Methylphenyl)-9-(3-thienylmethyl)-2,6-dihydro[1,2,4]triazolo[4,3-c]quinazoline-3,5-dione], the melting point was 287 °C. For the same compound, affinity at benzodiazepine receptor was put at a Ki of 0.23 ± 0.18 nM. Also, in the data set on benzodiazepine receptor (ratio of Ki values, vs 16a), the “fold higher affinity of methylene linked thiophene compared to phenyl 16a” value is 5 fold.

With `Cc1ccc(-n2nc3c4cc(/C=C/C(=O)OCc5ccccc5)ccc4[nH]c(=O)n3c2=O)cc1` [Compound 17, Benzyl (2E)-3-[2-(4-methylphenyl)-3,5-dioxo-2,6-dihydro[1,2,4]triazolo[4,3-c]quinazolin-9-yl]acrylate], the melting point turned out to be 242 °C.

Compound `Cc1ccc(-n2nc3c4cc(CCC(=O)O)ccc4[nH]c(=O)n3c2=O)cc1` [Compound 18, 3-[2-(4-Methylphenyl)-3,5-dioxo-2,6-dihydro[1,2,4]triazolo[4,3-c]quinazolin-9-yl]propanoic acid] displayed a melting point of 275 °C. The affinity on benzodiazepine receptor, expressed as Ki, was 1.4 nM.

The values above are taken from patent US8809355B2, “GABAA receptor modulators” (Innovationspatent Sverige AB, priority 2008, dated 2014).
